These results are taken from ChEMBL document CHEMBL5154935, “Design, Synthesis, and Biological Evaluation of Novel Evodiamine Derivatives as Potential Antihepatocellular Carcinoma Agents” (J Med Chem, 2022).

One data set deals with HepG2. In words: Antiproliferative activity against human HepG2 cells treated for 72 hrs by MTT assay. Type of data set: functional, cell-based. As to conditions: HepG2, 72 h.
The next data set deals with Huh-7. The experiment in a line: Antiproliferative activity against human Huh-7 cells treated for 72 hrs by MTT assay. To be noted: Huh-7, 72 h. The data set is classed as functional, cell-based.
For another data set, the system named is SK-HEP1. In words: Antiproliferative activity against human SK-HEP1 cells treated for 72 hrs by MTT assay. The data set is classed as functional, cell-based. To be noted: SK-HEP1, 72 h.
The subject of the next data set is HCCLM9. The experiment in a line: Antiproliferative activity against human HCCLM9 cells treated for 72 hrs by MTT assay. Type of data set: functional, cell-based. To be noted: HCCLM9, 72 h.
Data set [1] is described as follows: Antiproliferative activity against human L02 cells treated for 72 hrs by MTT assay. Type of data set: toxicity, cell-based.
The next data set relates to SMMC-7721. In words: Antiproliferative activity against human SMMC-7721 cells treated for 72 hrs by MTT assay. Type of data set: functional, cell-based. To be noted: SMMC-7721, 72 h.
In data set [2] the target is T1, DNA topoisomerase 1 (Homo sapiens) (UniProt P11387).
T1 sequence (whole entry): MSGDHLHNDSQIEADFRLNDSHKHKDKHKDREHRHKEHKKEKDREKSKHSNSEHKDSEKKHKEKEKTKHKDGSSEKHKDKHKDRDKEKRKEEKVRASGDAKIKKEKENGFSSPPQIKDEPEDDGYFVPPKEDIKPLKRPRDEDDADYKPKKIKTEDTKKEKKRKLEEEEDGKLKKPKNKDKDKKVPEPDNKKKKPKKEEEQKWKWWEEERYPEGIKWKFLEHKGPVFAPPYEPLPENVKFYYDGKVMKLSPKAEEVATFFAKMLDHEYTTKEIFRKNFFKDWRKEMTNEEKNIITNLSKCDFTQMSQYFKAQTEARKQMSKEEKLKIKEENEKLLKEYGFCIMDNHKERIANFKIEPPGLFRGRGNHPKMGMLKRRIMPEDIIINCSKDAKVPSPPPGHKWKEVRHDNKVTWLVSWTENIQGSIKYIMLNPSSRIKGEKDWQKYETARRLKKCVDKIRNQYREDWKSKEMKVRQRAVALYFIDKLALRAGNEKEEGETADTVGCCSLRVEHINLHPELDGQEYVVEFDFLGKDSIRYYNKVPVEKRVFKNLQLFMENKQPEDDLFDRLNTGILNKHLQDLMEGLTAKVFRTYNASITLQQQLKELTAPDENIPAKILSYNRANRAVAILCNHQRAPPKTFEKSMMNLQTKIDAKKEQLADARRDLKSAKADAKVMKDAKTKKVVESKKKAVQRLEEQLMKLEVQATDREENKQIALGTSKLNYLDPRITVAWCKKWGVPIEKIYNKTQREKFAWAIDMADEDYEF
In words: Inhibition of Top1 (unknown origin) assessed as inhibition of relaxation of supercoiled pBR322 plasmid DNA at 50 uM incubated for 25 mins by ethidium bromide staining based agarose gel electrophoresis analysis relative to control.

Data set [3] concerns the target T1, DNA topoisomerase 1 (Homo sapiens). In words: Inhibition of Top1 (unknown origin) assessed as inhibition of relaxation of supercoiled pBR322 plasmid DNA at 12.5 uM incubated for 25 mins by ethidium bromide staining based agarose gel electrophoresis analysis relative to control.
For data set [4], the target named is DNA topoisomerase 2-alpha (Homo sapiens) (UniProt P11388). In words: Inhibition of human Top2-alpha expressed in baculovirus assessed as inhibition of relaxation of supercoiled pBR322 plasmid DNA at 100 uM incubated for 30 mins in presence of ATP by ethidium bromide staining based agarose gel electrophoresis analysis relative to control.

Where only a bound is given, the exact number is not on record here.

DNA topoisomerase 2-alpha (Homo sapiens), sequence (P11388 whole entry): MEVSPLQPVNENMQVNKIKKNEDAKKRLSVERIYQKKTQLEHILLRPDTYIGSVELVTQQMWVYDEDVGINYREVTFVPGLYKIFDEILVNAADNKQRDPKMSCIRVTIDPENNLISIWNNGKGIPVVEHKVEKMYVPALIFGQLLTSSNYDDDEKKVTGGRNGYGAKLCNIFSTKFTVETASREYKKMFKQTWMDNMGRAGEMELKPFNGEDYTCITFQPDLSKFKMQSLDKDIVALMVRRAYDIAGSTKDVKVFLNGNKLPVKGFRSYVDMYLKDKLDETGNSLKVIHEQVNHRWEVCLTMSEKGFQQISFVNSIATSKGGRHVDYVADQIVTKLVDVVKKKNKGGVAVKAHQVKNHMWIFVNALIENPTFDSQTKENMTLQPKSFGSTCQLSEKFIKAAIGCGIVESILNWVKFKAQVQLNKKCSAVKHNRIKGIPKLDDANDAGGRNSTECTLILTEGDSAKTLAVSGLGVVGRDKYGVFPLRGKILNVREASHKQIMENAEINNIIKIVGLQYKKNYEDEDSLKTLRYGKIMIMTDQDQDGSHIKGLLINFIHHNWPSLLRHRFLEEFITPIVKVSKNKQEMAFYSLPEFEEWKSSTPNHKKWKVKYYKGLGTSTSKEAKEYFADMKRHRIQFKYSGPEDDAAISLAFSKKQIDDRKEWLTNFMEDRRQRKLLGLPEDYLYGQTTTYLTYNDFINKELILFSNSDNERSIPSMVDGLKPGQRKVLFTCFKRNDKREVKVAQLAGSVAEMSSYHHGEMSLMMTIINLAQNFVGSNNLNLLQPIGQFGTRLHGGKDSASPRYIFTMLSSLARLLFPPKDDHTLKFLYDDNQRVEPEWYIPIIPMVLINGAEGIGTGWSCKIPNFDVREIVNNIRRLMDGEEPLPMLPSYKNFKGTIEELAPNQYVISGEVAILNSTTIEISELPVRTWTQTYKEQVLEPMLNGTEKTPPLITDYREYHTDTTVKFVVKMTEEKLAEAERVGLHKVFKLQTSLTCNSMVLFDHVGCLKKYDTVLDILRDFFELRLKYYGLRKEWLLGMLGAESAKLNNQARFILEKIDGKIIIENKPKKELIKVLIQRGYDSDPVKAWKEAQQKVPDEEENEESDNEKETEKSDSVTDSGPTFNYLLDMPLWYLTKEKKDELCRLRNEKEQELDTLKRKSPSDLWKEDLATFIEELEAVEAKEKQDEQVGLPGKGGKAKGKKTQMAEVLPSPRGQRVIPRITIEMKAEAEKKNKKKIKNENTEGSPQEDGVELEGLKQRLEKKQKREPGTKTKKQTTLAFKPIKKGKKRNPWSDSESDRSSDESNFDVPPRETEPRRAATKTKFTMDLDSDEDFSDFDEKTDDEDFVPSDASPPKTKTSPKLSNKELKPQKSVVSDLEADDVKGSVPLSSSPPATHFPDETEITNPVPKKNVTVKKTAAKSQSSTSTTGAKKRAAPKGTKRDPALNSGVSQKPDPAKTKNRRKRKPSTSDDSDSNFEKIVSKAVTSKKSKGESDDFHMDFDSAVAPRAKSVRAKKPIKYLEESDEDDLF

Take `COc1ccc2[nH]c3c(c2c1)CCN1C(=O)c2cc(F)ccc2N(c2ccc(Br)c(F)c2)C31` (configuration not stated): the 50% inhibitory concentration (IC50) in the data set with HepG2 is 15.9 µM; with Huh-7, over 18 µM; with SK-HEP1 it was over 18 µM; in the data set with HCCLM9, over 18 µM; with SMMC-7721 it was over 18 µM. In addition, the 50% inhibitory concentration (IC50) at 72 h in data set [1] was over 6 µM.

In the case of `O=C1c2cc(F)cc(F)c2N(c2cccc(F)c2)C2c3[nH]c4ccc(Cl)cc4c3CCN12` (configuration not stated), the half-maximal inhibitory concentration (IC50) in the data set with HepG2 was found to be 0.68 µM; in the data set on Huh-7, 0.29 µM; with SK-HEP1, 0.11 µM; in the data set with HCCLM9 it was 0.14 µM; with SMMC-7721 it was 0.77 µM. For the same molecule, the IC50 at 72 h in data set [1] came to 1.37 µM. For the same molecule, the values for the inhibition in data set [2], in data set [3] and in [4] were 90.1%, 75.4% and 65.2%, respectively.

Turning to `O=C1c2cc(F)cc(F)c2N(c2cccc(F)c2)C2c3[nH]c4ccccc4c3CCN12` (configuration not stated), the half-maximal inhibitory concentration (IC50) was 0.39 µM in the data set on HepG2; 0.03 µM in the data set with Huh-7; 0.27 µM in the data set with SK-HEP1; 0.28 µM in the data set on HCCLM9; 0.27 µM in the data set with SMMC-7721. Moreover, the IC50 at 72 h in data set [1] is 0.95 µM. For the same molecule, the inhibition in data set [2] is 94.4%; in data set [3], 27.7%; in data set [4] it was 52.6%.

With `COc1ccc2[nH]c3c(c2c1)CCN1C(=O)c2cc(F)c(F)cc2N(c2cccc(F)c2)C31` (configuration not stated), the half-inhibitory concentration (IC50) in the data set on HepG2 came out at 6.98 µM; in the data set on Huh-7, 7.69 µM; in the data set with SK-HEP1, 7.21 µM; with HCCLM9, 10.8 µM; in the data set with SMMC-7721, 7.14 µM. Also, in data set [1], the 50% inhibitory concentration (IC50) at 72 h was over 6 µM.

On to `COc1ccc2[nH]c3c(c2c1)CCN1C(=O)c2cc(F)ccc2N(c2cc(C)cc(F)c2)C31` (configuration not stated), for which the IC50 in the data set on HepG2 stood at 7.3 µM; with Huh-7, 6.99 µM; in the data set on SK-HEP1, 7.3 µM; in the data set with HCCLM9, 12 µM; with SMMC-7721 it was 8.15 µM. The molecule also yielded an IC50 at 72 h in [1] of over 6 µM.

In the case of `COc1cc(F)cc(N2c3ccc(F)cc3C(=O)N3CCc4c([nH]c5ccc(OC)cc45)C32)c1` (configuration not stated), the IC50 in the data set with HepG2 came to 2.91 µM; with Huh-7, 3.66 µM; in the data set on SK-HEP1, 3.15 µM; with HCCLM9, 4.21 µM; in the data set with SMMC-7721 it was 3.98 µM. Also, the IC50 at 72 h in [1] was 5.78 µM.

Turning to `COc1ccc2[nH]c3c(c2c1)CCN1C(=O)c2cc(F)ccc2N(c2ccc(Cl)c(F)c2)C31` (configuration not stated), the half-inhibitory concentration (IC50) came out at 6.44 µM in the data set with HepG2; 7.68 µM in the data set on Huh-7; 8.9 µM in the data set on SK-HEP1; 6.9 µM in the data set on HCCLM9; 6.92 µM in the data set with SMMC-7721. This molecule also yielded an IC50 at 72 h in [1] of 2.69 µM.

As for `COc1ccc2[nH]c3c(c2c1)CCN1C(=O)c2cc(F)ccc2N(c2cc(F)cc(Br)c2)C31` (configuration not stated), the IC50 with HepG2 is 4.36 µM; with SK-HEP1, 4.21 µM; in the data set on HCCLM9, 7.75 µM; with SMMC-7721, 5.77 µM. Besides, the IC50 at 72 h in data set [1] was determined as 5.97 µM.

With `CC[C@@]1(O)C(=O)OCc2c1cc1n(c2=O)Cc2cc3ccccc3nc2-1`, in [4], the inhibition came out at 70.2%.

As for `COc1ccc2[nH]c3c(c2c1)CCN1C(=O)c2cc(F)ccc2N(c2ccc(F)c(F)c2)C31` (configuration not stated), the 50% inhibitory concentration (IC50) with HepG2 is 1.34 µM; with Huh-7, 1.19 µM; in the data set on SK-HEP1 it was 1.35 µM; in the data set with HCCLM9 it was 2.67 µM; with SMMC-7721, 1.48 µM. This molecule also registered a concentration for half-maximal inhibition (IC50) at 72 h in data set [1] of 3.46 µM.

Turning to `COc1ccc2[nH]c3c(c2c1)CCN1C(=O)c2cc(F)ccc2N(c2ccc(C)c(F)c2)C31` (configuration not stated), the IC50 was 4.62 µM in the data set with HepG2; 6.34 µM in the data set with Huh-7; 6.96 µM with SK-HEP1; 6.62 µM in the data set with HCCLM9; 5.9 µM with SMMC-7721. This molecule also yielded a 50% inhibitory concentration (IC50) at 72 h in data set [1] of over 6 µM.

Consider `COc1ccc2[nH]c3c(c2c1)CCN1C(=O)c2cc(F)ccc2N(c2cc(F)ccc2Br)C31` (configuration not stated), for which the concentration for half-maximal inhibition (IC50) in the data set on HepG2 was 13.1 µM; in the data set with Huh-7, 11.4 µM; in the data set on SK-HEP1, 14.7 µM; with HCCLM9 it was over 18 µM; in the data set on SMMC-7721, 13 µM. Further, the concentration for half-maximal inhibition (IC50) at 72 h in data set [1] is over 6 µM.

Take `COc1ccc2[nH]c3c(c2c1)CCN1C(=O)c2cc(F)ccc2N(c2cc(F)ccc2C)C31` (configuration not stated): the half-maximal inhibitory concentration (IC50) in the data set with HepG2 was 7.19 µM; with Huh-7 it was 11.2 µM; in the data set on SK-HEP1, 8.91 µM; in the data set on HCCLM9, over 18 µM; with SMMC-7721 it was 9.18 µM. Also, the IC50 at 72 h in data set [1] was over 6 µM.

For `COc1ccc2[nH]c3c(c2c1)CCN1C(=O)c2cc(F)ccc2N(c2cc(F)cc(Cl)c2)C31` (configuration not stated), the half-maximal inhibitory concentration (IC50) worked out at 3.92 µM in the data set with HepG2; 4.87 µM with Huh-7; 5.01 µM in the data set with SK-HEP1; 7.05 µM with HCCLM9; 5.11 µM in the data set with SMMC-7721. In addition, the concentration for half-maximal inhibition (IC50) at 72 h in data set [1] was found to be 5.44 µM.

Regarding `COc1ccc2[nH]c3c(c2c1)CCN1C(=O)c2cc(F)cc(F)c2N(c2cccc(F)c2)C31` (configuration not stated), the IC50 was 0.27 µM with HepG2; 0.23 µM with Huh-7; 0.27 µM with SK-HEP1; 39 µM in the data set with HCCLM9; 0.35 µM in the data set with SMMC-7721. For the same molecule, in data set [1], the concentration for half-maximal inhibition (IC50) at 72 h amounted to 1.56 µM. Further, the inhibition in data set [2] was determined as 48.4%; in [3] it was 20.1%; in data set [4], 65.2%.

For `COc1ccc2[nH]c3c(c2c1)CCN1C(=O)c2cc(F)ccc2N(c2cc(F)ccc2OC)C31` (configuration not stated), the IC50 in the data set on HepG2, in the data set with Huh-7, in the data set on SK-HEP1, with HCCLM9 and with SMMC-7721 was over 18 µM in each case. In [1], this molecule gave an IC50 at 72 h of over 6 µM.

For `COc1ccc2[nH]c3c(c2c1)CCN1C(=O)c2cc(F)ccc2N(c2cc(F)ccc2Cl)C31` (configuration not stated), the 50% inhibitory concentration (IC50) with HepG2 is 8.71 µM; with Huh-7, 11.5 µM; in the data set with SK-HEP1, 16.5 µM; in the data set on HCCLM9, over 18 µM; in the data set with SMMC-7721, 10.9 µM. The molecule also yielded a half-inhibitory concentration (IC50) at 72 h in [1] of over 6 µM.

As to `CCOc1ccc2[nH]c3c(c2c1)CCN1C(=O)c2cc(F)cc(F)c2N(c2cccc(F)c2)C31` (configuration not stated), the half-inhibitory concentration (IC50) with HepG2 was 0.85 µM; in the data set on Huh-7, 0.6 µM; with SK-HEP1 it was 1.34 µM; in the data set on HCCLM9, 0.89 µM; in the data set with SMMC-7721, 0.92 µM. For the same molecule, the midpoint of inhibition in [1], the IC50 at 72 h, lay at 1.8 µM. The inhibition in data set [2] worked out at 66.7%; in [3], 50.8%; in data set [4] it was 48.3%.

`COc1ccc2[nH]c3c(c2c1)CCN1C(=O)c2cc(F)ccc2N(c2cc(F)cc(F)c2)C31` (configuration not stated): the half-inhibitory concentration (IC50) in the data set on HepG2 was 2.91 µM; with Huh-7, 3.61 µM; in the data set with SK-HEP1, 3.97 µM; in the data set with HCCLM9 it was 6.34 µM; in the data set with SMMC-7721, 2.97 µM. Further, the half-maximal inhibitory concentration (IC50) at 72 h in data set [1] was over 6 µM.

Consider `COc1ccc2[nH]c3c(c2c1)CCN1C(=O)c2cc(F)ccc2N(c2cc(F)ccc2F)C31` (configuration not stated), for which the IC50 in the data set on HepG2 worked out at 2.8 µM; in the data set on Huh-7 it was 7.75 µM; in the data set on SK-HEP1, 5.78 µM; in the data set on HCCLM9, 3.78 µM; with SMMC-7721, 3.98 µM. In [1], the 50% inhibitory concentration (IC50) at 72 h is 4.67 µM.

For the molecule `COc1ccc2[nH]c3c(c2c1)CCN1C(=O)c2cc(F)ccc2N(c2ccc(OC)c(F)c2)C31` (configuration not stated), the IC50 with HepG2 was found to be 4.67 µM; with Huh-7, 4.32 µM; with SK-HEP1 it was 4.55 µM; in the data set with HCCLM9, 6.04 µM; in the data set with SMMC-7721 it was 4.38 µM. Besides, the half-inhibitory concentration (IC50) at 72 h in [1] was over 6 µM.
